Source: PMC9820345, “Metal Complexes of a 5-Nitro-8-Hydroxyquinoline-Proline Hybrid with Enhanced Water Solubility Targeting Multidrug Resistant Cancer Cells” (International Journal of Molecular Sciences, 2022)

Experiments:
OATP2B1 = target: T1, OATP2B1 (Homo sapiens, UniProt O94956); test: OATP uptake assay, OATP2B1; type: cell-based; details: human, 20 μM
T1 construct: expressed in transfected cells; host or cells: A431 epidermoid carcinoma cells
T1 sequence (O94956 1-709): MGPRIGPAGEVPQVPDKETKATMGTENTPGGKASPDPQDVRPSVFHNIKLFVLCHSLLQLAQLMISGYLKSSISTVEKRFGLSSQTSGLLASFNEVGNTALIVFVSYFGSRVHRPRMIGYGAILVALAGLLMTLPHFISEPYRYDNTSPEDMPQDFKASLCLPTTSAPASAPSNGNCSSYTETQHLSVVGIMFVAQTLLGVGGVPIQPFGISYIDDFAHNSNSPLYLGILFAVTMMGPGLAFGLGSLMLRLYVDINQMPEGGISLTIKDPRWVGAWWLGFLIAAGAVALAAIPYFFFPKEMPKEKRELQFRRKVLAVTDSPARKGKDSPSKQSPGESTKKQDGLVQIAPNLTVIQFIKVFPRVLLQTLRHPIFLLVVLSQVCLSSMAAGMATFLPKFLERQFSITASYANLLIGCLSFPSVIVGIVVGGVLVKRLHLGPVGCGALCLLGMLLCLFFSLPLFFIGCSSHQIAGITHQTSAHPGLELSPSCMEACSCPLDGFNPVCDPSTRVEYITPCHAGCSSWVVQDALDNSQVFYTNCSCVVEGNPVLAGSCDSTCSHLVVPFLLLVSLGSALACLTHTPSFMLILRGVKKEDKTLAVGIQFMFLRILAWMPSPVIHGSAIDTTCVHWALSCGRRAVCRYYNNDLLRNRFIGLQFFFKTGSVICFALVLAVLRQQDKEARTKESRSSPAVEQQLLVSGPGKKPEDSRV
Description: Cell lines: A431 cells overexpressing OATP1B1 or OATP2B1, and their mock transfected controls were generated and characterized previously. The cell lines were cultured in DMEM (Gibco, Thermofisher Scientific, Waltham, MA, USA), supplemented with 10% fetal bovine serum, 2 mM L-glutamine, 100 μg/mL streptomycin, and 100 units/mL penicillin at 37 °C and 5% CO2.
OATP uptake assay: Prior to the experiment, A431 cells (8 × 10^4/well) were seeded on 96-well plates in 200 μL cell culture medium. After 16–24 h, the cells were washed with 200 μL PBS, three times and pre-incubated with 20–200 μM HQNO2-L-Pro, or buffer without HQNO2-L-Pro for 5 min at 37 °C in 50 μL HBSS (Hank’s Balanced Salt Solution, pH 7.4; OATP1B1) or uptake buffer (pH 5.5; OATP2B1 [63]). The reaction was started by the addition of disulfopyrene (6,8-dihydroxy-1,3-pyrenedisulfonic acid disodium salt, Sigma, Darmstadt, Germany) at a final concentration of 10 μM (OATP1B1) or pyranine (8-hydroxypyrene-1,3-pyrenetrisulfonic acid trisodium salt, Sigma, Darmstadt, Germany) at a final concentration of 20 μM (OATP2B1), and the cells were further incubated at 37 °C for 10 min (OATP1B1) or 15 min (OATP2B1). The reaction was stopped by removing the supernatant after which the cells were washed three times with ice-cold PBS. Fluorescence (in 200 μL PBS) was determined using an Enspire plate reader (PerkinElmer, Waltham, MA, USA) with excitation/emission wavelengths of 460/510 nm. OATP-dependent transport was calculated by subtracting fluorescence measured in mock transfected cells. Transport activity was calculated based on the fluorescence signal in the absence (100%) of HQNO2-L-Pro. Experiments were repeated in at least three biological replicates.

HSA site II = target: T2, HSA site II (Homo sapiens, UniProt P02768); test: HSA dansylglycine (DG) site marker displacement by fluorometry (site II); type: binding; details: 1 µM HSA, 1 µM DG, pH 7.4 (PBS')
T2 construct: purchased Sigma-Aldrich (Darmstadt, Germany) A8763
T2 sequence (P02768 25-609): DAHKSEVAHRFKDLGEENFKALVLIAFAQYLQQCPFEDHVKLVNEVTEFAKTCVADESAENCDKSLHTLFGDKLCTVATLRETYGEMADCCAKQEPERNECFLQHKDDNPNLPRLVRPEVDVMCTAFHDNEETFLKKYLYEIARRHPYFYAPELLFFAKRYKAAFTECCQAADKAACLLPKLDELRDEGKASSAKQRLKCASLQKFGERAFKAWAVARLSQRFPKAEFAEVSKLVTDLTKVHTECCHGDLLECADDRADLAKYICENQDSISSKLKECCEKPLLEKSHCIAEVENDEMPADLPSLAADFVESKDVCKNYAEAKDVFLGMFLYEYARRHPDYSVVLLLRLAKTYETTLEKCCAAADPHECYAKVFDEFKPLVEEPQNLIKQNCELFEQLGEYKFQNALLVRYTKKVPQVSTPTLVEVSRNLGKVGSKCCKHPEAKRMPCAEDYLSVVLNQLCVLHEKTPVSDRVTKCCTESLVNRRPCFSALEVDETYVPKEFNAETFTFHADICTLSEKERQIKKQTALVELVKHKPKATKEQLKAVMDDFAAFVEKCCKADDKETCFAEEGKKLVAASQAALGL
Description: Therefore, tryptophan (Trp-214) quenching and dansylglycine (DG) site marker displacement experiments were conducted by fluorometry to obtain information about the binding at sites I and II, respectively, using the same approach reported in our former paper. A representative spectral series is shown in Figure 9a for the Trp-214 quenching experiment, upon the addition of the RhCp*–HQNO2-L-Pro complex and the computed binding constants (logKQ’ and logKDG’) which can be found in Figure 9b, in addition to the corresponding data for the HQCl-L-Pro complexes.
A Fluoromax (Horiba Jobin Yvon, Longjumeau, France) spectrofluorometer was utilized for fluorescence measurements using a 1 cm × 1 cm quartz cuvette. Samples contained 1 µM HSA or DG and 1 µM HSA at pH 7.4 (PBS’), and the complex concentration was varied between 0 and 53 µM. The measurements were carried out on individual samples. Excitation wavelengths were 295 nm for Trp-214 quenching, and 335 nm for the DG displacement studies, respectively. The calculated conditional stability constants for HSA–complex species were obtained using the computer program HypSpec. Calculations always were based on data obtained from at least two independent measurements. Self-absorbance and inner filter effect had to be taken into account, and corrections were made as was described in our former works.

activity at 15 min, 10 µM (OATP2B1; A431 cells overexpressing OATP2B1, pH 5.5, probe pyranine, 10 μM, absence of compound = 100%, n = 3, ± SD, read-out: transport activity % OATP2B1) [%]	activity at 15 min, 100 µM (OATP2B1; A431 cells overexpressing OATP2B1, pH 5.5, probe pyranine, 100 μM, absence of compound = 100%, n = 3, ± SD, read-out: transport activity % OATP2B1) [%]	inhibition at 15 min, 100 µM (OATP2B1; probe pyranine, at 100 μM, A431 cells overexpressing OATP2B1, pH 5.5, read-out: inhibition of OATP2B1 function) [%]	Kd (HSA site II; read-out: DG marker displacement constant logKDG' (converted)) [µM]	DG marker displacement constant logKDG' (HSA site II)	Structure (SMILES)
98.2 ± 5.5	83.3 ± 9.7	< 20	33.9	–	O=C(O)[C@@H]1CCCN1Cc1cc([N+](=O)[O-])c2cccnc2c1O [HQNO2-L-Pro, (2S)-1-((8-hydroxy-5-nitroquinolin-7-yl)methyl)pyrrolidin-1-ium-2-carboxylate]
–	–	–	–	5.6	CC1=C(C)[C](C)([Rh]([Cl])[O]c2c(C[NH+]3CCC[C@H]3C(=O)O)cc([N+](=O)[O-])c3cccnc23)C(C)=C1C.[Cl-] [RhCp*-HQNO2-L-Pro, [RhCp*(HQNO2-L-Pro)Cl]Cl]
